Laboratory results: patent publication US11458123B2 (Arvinas, Inc., priority 2016, dated 2022)

What follows are compounds tested on tau protein (assay: Tau protein in vitro degradation assay (Western blot, Tau-13 antibody)). Conditions: SK-N-SH cells; 72 hours of incubation; tested at 300 nM, 100 nM, 33 nM and 11 nM; Western blot, Tau-13 antibody.
Assay type: cell-based, human
Summary of the method: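 SK-N-SH cells, seeded ≥18 h beforehand, were incubated 72 h with tau PROTACs at 1000, 300 and 100 nM or at 300, 100, 33 and 11 nM. Lysates in protease-inhibitor buffer were resolved by SDS-PAGE; tau quantified by Western blot with Tau-13 antibody recognising all human tau forms.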
In the case of `O=C1CCC(N2C(=O)c3ccc(N4CCN(CCN5CCC(O[C@H]6C[C@H](Oc7ccc(-c8ccc9c(c8)[nH]c8ccncc89)cn7)C6)CC5)CC4)cc3C2=O)C(=O)N1` (stereo partly shown) [Compound 66, 5-(4-(2-(4-((1r,3r)-3-((5-(5H-pyrido[4,3-b]indol-7-yl)pyridin-2-yl)oxy)cyclobutoxy)piperidin-1-yl)ethyl)piperazin-1-yl)-2-(2,6-dioxopiperidin-3-yl)isoindoline-1,3-dione], the “Degradation activity* (highest amount of degradation observed at any dosage; tau protein remaining)” value is reported as “C (>80% tau protein remaining after 72 hours of incubation with the test compound)”. For `Cn1c2ccncc2c2ccc(-c3cnc(OCCOCCOCCOCCOCCOc4ccc5c(c4)C(=O)N(C4CCC(=O)NC4=O)C5=O)c(C(F)(F)F)c3)cc21` (stereo not shown) [Compound 67, 2-(2,6-dioxopiperidin-3-yl)-5-((14-((5-(5-methyl-5H-pyrido[4,3-b]indol-7-yl)-3-(trifluoromethyl)pyridin-2-yl)oxy)-3,6,9,12-tetraoxatetradecyl)oxy)isoindoline-1,3-dione], the “Degradation activity* (highest amount of degradation observed at any dosage; tau protein remaining)” value was “A (≤50% tau protein remaining after 72 hours of incubation with the test compound)”. `Cn1c2ccncc2c2ccc(-c3ccc(O[C@H]4C[C@H](OCCCCCN5CCN(c6ccc7c(c6)C(=O)N(C6CCC(=O)NC6=O)C7=O)CC5)C4)nc3)cc21` (stereo partly shown) [Compound 68, 2-(2,6-dioxopiperidin-3-yl)-5-(4-(5-((1r,3r)-3-((5-(5-methyl-5H-pyrido[4,3-b]indol-7-yl)pyridin-2-yl)oxy)cyclobutoxy)pentyl)piperazin-1-yl)isoindoline-1,3-dione] was tested, and the “Degradation activity* (highest amount of degradation observed at any dosage; tau protein remaining)” value was “C (>80% tau protein remaining after 72 hours of incubation with the test compound)”. In the case of `Cn1c2ccncc2c2ccc(-c3cnc(OCCOCCOCCOCCOCCOc4ccc5c(c4)C(=O)N(C4CCC(=O)NC4=O)C5=O)cc3C(F)(F)F)cc21` (stereo not shown) [Compound 69, 2-(2,6-dioxopiperidin-3-yl)-5-((14-((5-(5-methyl-5H-pyrido[4,3-b]indol-7-yl)-4-(trifluoromethyl)pyridin-2-yl)oxy)-3,6,9,12-tetraoxatetradecyl)oxy)isoindoline-1,3-dione], the “Degradation activity* (highest amount of degradation observed at any dosage; tau protein remaining)” value is reported as “A (≤50% tau protein remaining after 72 hours of incubation with the test compound)”. In the case of `Cn1c2ccncc2c2ccc(-c3ccc(O[C@H]4C[C@H](OCCOCCOCCOCCOc5ccc6c(c5)C(=O)N(C5CCC(=O)NC5=O)C6=O)C4)nc3)cc21` (stereo partly shown) [Compound 70, 2-(2,6-dioxopiperidin-3-yl)-5-(2-(2-(2-(2-((1r,3r)-3-((5-(5-methyl-5H-pyrido[4,3-b]indol-7-yl)pyridin-2-yl)oxy)cyclobutoxy)ethoxy)ethoxy)ethoxy)ethoxy)isoindoline-1,3-dione], the “Degradation activity* (highest amount of degradation observed at any dosage; tau protein remaining)” value is reported as “A (≤50% tau protein remaining after 72 hours of incubation with the test compound)”. With `Cn1c2ccncc2c2ccc(-c3ccc(C#CCOCCOCCOCCOCCOc4ccc5c(c4)C(=O)N(C4CCC(=O)NC4=O)C5=O)nc3)cc21` (stereo not shown) [Compound 71, 2-(2,6-dioxopiperidin-3-yl)-5-((15-(5-(5-methyl-5H-pyrido[4,3-b]indol-7-yl)pyridin-2-yl)-3,6,9,12-tetraoxapentadec-14-yn-1-yl)oxy)isoindoline-1,3-dione] the “Degradation activity* (highest amount of degradation observed at any dosage; tau protein remaining)” value was “A (≤50% tau protein remaining after 72 hours of incubation with the test compound)”. With `O=C1CCC(N2C(=O)c3c(F)c(F)c(OCCOCCOCCOCCOCCOc4ccc(-c5ccc6c(c5)[nH]c5ccncc56)cn4)c(F)c3C2=O)C(=O)N1` (stereo not shown) [Compound 72, 5-((14-((5-(5H-pyrido[4,3-b]indol-7-yl)pyridin-2-yl)oxy)-3,6,9,12-tetraoxatetradecyl)oxy)-2-(2,6-dioxopiperidin-3-yl)-4,6,7-trifluoroisoindoline-1,3-dione] the “Degradation activity* (highest amount of degradation observed at any dosage; tau protein remaining)” value was “C (>80% tau protein remaining after 72 hours of incubation with the test compound)”. In the case of `O=C1CCC(N2C(=O)c3ccc(OCC#Cc4ccc(O[C@H]5C[C@H](Oc6ccc(-c7ccc8c(c7)[nH]c7ccncc78)cn6)C5)cn4)cc3C2=O)C(=O)N1` (stereo partly shown) [Compound 73, 5-((3-(5-((1r,3r)-3-((5-(5H-pyrido[4,3-b]indol-7-yl)pyridin-2-yl)oxy)cyclobutoxy)pyridin-2-yl)prop-2-yn-1-yl)oxy)-2-(2,6-dioxopiperidin-3-yl)isoindoline-1,3-dione], the “Degradation activity* (highest amount of degradation observed at any dosage; tau protein remaining)” value is reported as “A (≤50% tau protein remaining after 72 hours of incubation with the test compound)”. `Cn1c2ccncc2c2ccc(-c3ccc(CCCOCCOCCOCCOCCOc4ccc5c(c4)C(=O)N(C4CCC(=O)NC4=O)C5=O)nc3)cc21` (stereo not shown) [Compound 74, 2-(2,6-dioxopiperidin-3-yl)-5-((15-(5-(5-methyl-5H-pyrido[4,3-b]indol-7-yl)pyridin-2-yl)-3,6,9,12-tetraoxapentadecyl)oxy)isoindoline-1,3-dione] was tested, and the “Degradation activity* (highest amount of degradation observed at any dosage; tau protein remaining)” value was “A (≤50% tau protein remaining after 72 hours of incubation with the test compound)”. With `Cn1c2ccncc2c2ccc(-c3ccc(OCCCCCOCCCCCC4CCN(c5ccc6c(c5)C(=O)N(C5CCC(=O)NC5=O)C6=O)CC4)nc3)cc21` (stereo not shown) [Compound 75, 2-(2,6-dioxopiperidin-3-yl)-5-(4-(5-((5-((5-(5-methyl-5H-pyrido[4,3-b]indol-7-yl)pyridin-2-yl)oxy)pentyl)oxy)pentyl)piperidin-1-yl)isoindoline-1,3-dione] the “Degradation activity* (highest amount of degradation observed at any dosage; tau protein remaining)” value was “C (>80% tau protein remaining after 72 hours of incubation with the test compound)”. With `Cn1c2ccncc2c2ccc(-c3ccc(C#CCN4CCN(CCCOC5CN(c6ccc7c(c6)C(=O)N(C6CCC(=O)NC6=O)C7=O)C5)CC4)nc3)cc21` (stereo not shown) [Compound 76, 2-(2,6-dioxopiperidin-3-yl)-5-(3-(3-(4-(3-(5-(5-methyl-5H-pyrido[4,3-b]indol-7-yl)pyridin-2-yl)prop-2-yn-1-yl)piperazin-1-yl)propoxy)azetidin-1-yl)isoindoline-1,3-dione] the “Degradation activity* (highest amount of degradation observed at any dosage; tau protein remaining)” value was “C (>80% tau protein remaining after 72 hours of incubation with the test compound)”. `O=C1CCC(N2C(=O)c3ccc(OCCCc4ccc(O[C@H]5C[C@H](Oc6ccc(-c7ccc8c(c7)[nH]c7ccncc78)cn6)C5)cn4)cc3C2=O)C(=O)N1` (stereo partly shown) [Compound 77, 5-(3-(5-((1r,3r)-3-((5-(5H-pyrido[4,3-b]indol-7-yl)pyridin-2-yl)oxy)cyclobutoxy)pyridin-2-yl)propoxy)-2-(2,6-dioxopiperidin-3-yl)isoindoline-1,3-dione] was tested, and the “Degradation activity* (highest amount of degradation observed at any dosage; tau protein remaining)” value was “C (>80% tau protein remaining after 72 hours of incubation with the test compound)”. `Cn1c2ccncc2c2ccc(-c3ccc(O[C@H]4C[C@H](OCCCCCCN5CCN(c6ccc7c(c6)C(=O)N(C6CCC(=O)NC6=O)C7=O)CC5)C4)nc3)cc21` (stereo partly shown) [Compound 78, 2-(2,6-dioxopiperidin-3-yl)-5-(4-(6-((1r,3r)-3-((5-(5-methyl-5H-pyrido[4,3-b]indol-7-yl)pyridin-2-yl)oxy)cyclobutoxy)hexyl)piperazin-1-yl)isoindoline-1,3-dione] was tested, and the “Degradation activity* (highest amount of degradation observed at any dosage; tau protein remaining)” value was “C (>80% tau protein remaining after 72 hours of incubation with the test compound)”.
